Data on eight molecules can be found in PubChem BioAssay (NCI).

Among the test systems are SK-MEL-28 melanoma; RXF 393 renal; PC-3 prostate; 786-0 renal; SK-OV-3 ovarian; SN12C renal; UO-31 renal; NCI-H460 lung; HOP-62 NSCLC; U251 CNS.
What all share (assay): NCI tumour cell line growth inhibition, 48 h

Several values for one entry are separate records, joined by “and”; a condition that tells them apart may be missing. Identical values can stand only once.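 Results reflect a 48-hour exposure of cells in 96-well plates to compound at five concentrations. The concentration for 50% growth inhibition is given as GI50. TGI is the concentration that stops growth completely.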

For the molecule `CC1(C)N=C(N)N=C(N)N1c1ccc(OCC(=O)N2CCOCC2)c(Cl)c1`, the GI50 in the test with SK-MEL-28 melanoma is 30.1 µM; with RXF 393 renal, 52.8 µM; in the test with PC-3 prostate, 0.531 µM; with 786-0 renal it was 20.2 µM; with SK-OV-3 ovarian, 69.8 µM; with SN12C renal, 6.9 µM. The GI50 is > 100 µM with UO-31 renal, 0.362 µM in the test on NCI-H460 lung, 12.2 µM in the test with HOP-62 NSCLC and 1.16 µM in the test on U251 CNS. The TGI in the test with SK-MEL-28 melanoma, with RXF 393 renal, in the test with PC-3 prostate, in the test on 786-0 renal, with SK-OV-3 ovarian and with SN12C renal was > 100 µM throughout. Further, the TGI with UO-31 renal, with NCI-H460 lung, in the test on HOP-62 NSCLC and in the test on U251 CNS was > 100 µM each time.
`COc1cc(OC)c2cc(C(=O)O)c(=O)oc2c1`: the GI50 is > 29.5 µM in the test on SK-MEL-28 melanoma; > 100 µM in the test with RXF 393 renal; > 100 µM with PC-3 prostate; > 95.4 µM in the test on 786-0 renal; > 100 µM in the test on SK-OV-3 ovarian; > 100 µM in the test on SN12C renal. For the same molecule, the GI50 with UO-31 renal was > 61.7 µM; with NCI-H460 lung, > 100 µM; with HOP-62 NSCLC, > 100 µM; in the test with U251 CNS it was > 100 µM. The TGI in the test with SK-MEL-28 melanoma, in the test on RXF 393 renal, with PC-3 prostate, in the test with 786-0 renal, in the test with SK-OV-3 ovarian and with SN12C renal was > 100 µM throughout. Besides, the TGI in the test on UO-31 renal, in the test on NCI-H460 lung, with HOP-62 NSCLC and with U251 CNS was > 100 µM throughout.
Turning to `C/C=C(\CCC1NCCc2c1[nH]c1ccccc21)[Si](C)(C)C` (configuration not stated), the GI50 was 6.42 µM and 1.83 µM in the test on SK-MEL-28 melanoma; 5.26 µM and 1.81 µM in the test with 786-0 renal; 8.47 µM and 3.65 µM with UO-31 renal; 5.56 µM and 1.92 µM in the test with NCI-H460 lung; 5.79 µM and 1.8 µM with U251 CNS. The TGI with SK-MEL-28 melanoma was 11.3 µM and 3.36 µM; with RXF 393 renal it was 17.6 µM and 2.53 µM; with PC-3 prostate it was 16.1 µM; in the test with 786-0 renal, 9.79 µM and 3.34 µM; in the test on SK-OV-3 ovarian it was 25.2 µM and 26.5 µM; in the test with SN12C renal it was 11.8 µM and 10.4 µM. Further, the TGI in the test with UO-31 renal is 22.5 µM and 10.5 µM; in the test with NCI-H460 lung, 10.9 µM and 3.78 µM; in the test on HOP-62 NSCLC, 28.1 µM and 24.5 µM; in the test on U251 CNS, 10.5 µM and 3.27 µM.
For `COc1cc(C2CC(c3ccc(Nc4ccnc5cc(Cl)ccc45)cc3)=NN2C=O)cc(OC)c1OC` (configuration not stated), the GI50 is 2.22 µM in the test on SK-MEL-28 melanoma; 2.22 µM with RXF 393 renal; 11.7 µM in the test on PC-3 prostate; 2.31 µM in the test on 786-0 renal; 3.36 µM in the test on SK-OV-3 ovarian; 4.37 µM in the test with SN12C renal. Besides, the GI50 with UO-31 renal was 4.96 µM; with NCI-H460 lung, 4.42 µM; with HOP-62 NSCLC it was 4.13 µM; with U251 CNS, 2.06 µM. In addition, the TGI is 4.81 µM with SK-MEL-28 melanoma; 8.01 µM in the test on RXF 393 renal; > 100 µM in the test on PC-3 prostate; 4.8 µM in the test on 786-0 renal; 10.9 µM in the test with SK-OV-3 ovarian; 42.4 µM with SN12C renal. Besides, the TGI in the test with UO-31 renal was 21.3 µM; in the test on NCI-H460 lung, > 100 µM; in the test on HOP-62 NSCLC, 20.8 µM; in the test on U251 CNS it was 4.76 µM.
In the case of `COc1ccc(N(C)c2nc(Cl)nc3ccn(C)c23)cc1`, the GI50 was 5 µM in the test on SK-MEL-28 melanoma; < 0.01 µM in the test with RXF 393 renal; < 0.01 µM in the test on PC-3 prostate; < 0.01 µM with 786-0 renal; < 0.01 µM in the test with SK-OV-3 ovarian; < 0.01 µM in the test on SN12C renal. The GI50 in the test on UO-31 renal is 0.139 µM; in the test on NCI-H460 lung it was < 0.01 µM; with HOP-62 NSCLC, < 0.01 µM; in the test with U251 CNS, < 0.01 µM. Besides, the TGI with SK-MEL-28 melanoma, in the test with RXF 393 renal, in the test with PC-3 prostate, in the test with 786-0 renal, in the test on SK-OV-3 ovarian and in the test on SN12C renal was > 100 µM in each case. Also, the TGI in the test with UO-31 renal, in the test on NCI-H460 lung, in the test on HOP-62 NSCLC and in the test on U251 CNS was > 100 µM throughout.
On to `Cn1c(=O)c2[nH]c(C3CC(=O)CC(c4nc5c([nH]4)c(=O)n(C)c(=O)n5C)N3)nc2n(C)c1=O` (configuration not stated), for which the TGI in the test on SK-MEL-28 melanoma, in the test with RXF 393 renal, with PC-3 prostate, in the test on 786-0 renal, with SK-OV-3 ovarian and in the test on SN12C renal was > 100 µM in each case. The TGI in the test with UO-31 renal, in the test on NCI-H460 lung, in the test on HOP-62 NSCLC and in the test on U251 CNS was > 100 µM in each case.
Consider `NC(N)=N/N=C(/c1ccccc1)c1ccc(Cl)cc1`, for which the GI50 in the test on SK-MEL-28 melanoma was 8.03 µM; in the test on RXF 393 renal, 12.3 µM; in the test with PC-3 prostate it was 3.84 µM; in the test on 786-0 renal, 16 µM; in the test with SK-OV-3 ovarian, 39.7 µM; in the test on SN12C renal it was 27.4 µM. Moreover, the GI50 with UO-31 renal was 17.2 µM; in the test on NCI-H460 lung, 9.93 µM; in the test on HOP-62 NSCLC it was 30.4 µM; in the test on U251 CNS it was 9.4 µM. Further, the TGI is > 100 µM in the test with SK-MEL-28 melanoma; 59.9 µM with RXF 393 renal; > 100 µM in the test on PC-3 prostate; > 100 µM with 786-0 renal; > 100 µM with SK-OV-3 ovarian; > 100 µM in the test on SN12C renal. Further, the TGI was > 100 µM with UO-31 renal, 44 µM in the test with NCI-H460 lung, > 100 µM with HOP-62 NSCLC and > 100 µM with U251 CNS.
As for `COc1ccc2cc3[n+](cc2c1OC)CCc1cc2c(cc1-3)OCO2`, the GI50 with SK-MEL-28 melanoma was 11.2 µM and 17.2 µM; in the test with RXF 393 renal it was 50.7 µM; in the test on PC-3 prostate it was 6.61 µM; with 786-0 renal, 72.7 µM; in the test on SK-OV-3 ovarian it was 38 µM; in the test with NCI-H460 lung it was 6.22 µM. The TGI in the test on RXF 393 renal was > 100 µM and 223 µM; with PC-3 prostate, > 100 µM; in the test on 786-0 renal, > 100 µM; in the test on SK-OV-3 ovarian it was > 100 µM and 194 µM; in the test on SN12C renal, > 100 µM and 75.2 µM and 81 µM; with HOP-62 NSCLC, > 100 µM and 42.4 µM.
